Data from patent publication US12624038B2, “Molecules and methods related to treatment of uncontrolled cellular proliferation” (ST. JUDE CHILDREN'S RESEARCH HOSPITAL, priority 2019, dated 2026).
“And” between values parts separate entries of the source, which are not always exact repeats. Equal entries are not always repeated. “Also recorded” adds a separate entry of the source. Where two headings read alike, the source gives them in different places.

Legend:
Caco-2 cells = assay: Caco-2 cell permeability; type: in vitro ADME; conditions: A to B (Table 4)
Procedure: Compound Caco-2 cell permeability was determined using the Transwell® 0.4 μm polycarbonate membrane 96-well as described before (Uchida, et al. (2009) J Pharmacol Toxicol Methods 59(1): 39-43). Briefly, Caco-2 cells monolayers were incubated over 2 hours at 37° C. Fractions were collected from receivers (basal side, B), and concentrations were assessed by UPLC/MS (Waters; Milford, MA). All compounds were tested in triplicates. The A→B (or B→A) apparent permeability coefficients (Papp) of each compound were calculated using the equation, Papp=dQ/dt×1/AC0, where dQ/dt equals the flux of a drug across the monolayer, A equals the total insert well surface area, and C0 is the initial concentration of substrate in the donor compartment.

CRLF2r B-ALL xenograft = assay: In vivo efficacy in CRLF2r B-ALL xenograft (PDX) in NSG mice; design: species or system mouse; conditions: compound 7 30 mg/kg i.p. daily
[1] = Tolerability (weight, blood counts) of NSG mice in the in vivo efficacy study; conditions: 28-day period, 30 mg/kg i.p. daily
Procedure: Female NOD.Cg-Prkdcscid Il2rgtm1Wjl/SzJ (NSG) mice aged 8-12 weeks were used for xenotransplantation. All experimental work was carried out according to Office of Laboratory Animal Welfare guidelines and was approved by Institutional Animal Care and Use Committee of St. Jude Children's Research Hospital. Mice aged 8-12 weeks were inoculated by tail vein injection with 1×10^6 leukemic cells transduced with a lentiviral vector containing the firefly luciferase and yellow fluorescent protein genes (CL20SF2-Luc2aYFP) (Sprowl, et al. (2013) Clin Pharmacol Ther. 94(5): 585-592). Leukemia burden was determined by weekly bioluminescence imaging using the Xenogen IVIS-200 system and Living Image software (Caliper Life Sciences). Treatment was commenced when luminescence averaged approximately […] photons/second. Mice were dosed with compound 7 at 30 mg/kg i.p. daily. […]. At the end of the study, cells from spleen, bone marrow and blood were harvested and stained with mouse CD45-APC-Cy7, human CD45-BV405, human CD19-PE antibodies and analyzed by flow cytometry to determine the percentage of human CD45 positive cells. For western blot, spleen leukemia cells were obtained by purification with hCD19 MicroBeads (Miltenyi biotech, Cat #130-050-301) per manufacturer's protocol. Efficacy was determined by linear regression and two-way ANOVA analysis in Prism (GraphPad Software, version 8.4.2).

[2] = In vivo pharmacokinetic (PK) study in NSG mice; design: species or system mouse; conditions: for concentration at 24 h: read-out: Clast
Procedure: Nontumor bearing female NSG mice (n=6), aged 8-12 weeks were dosed i.p. with single dose of compound 7 at 30 mg/kg and 100 mg/kg, respectively. Compound 7 was suspended in 60% PEG400+10% DMSO+[…] and the dosing volume is 5 ml/kg to get the target dose. For each dose, three mice were injected with a single dose and blood samples were collected at 0.5, 1, 2, 4, 8 and 24 hours by retro-orbital eye bleed technique. Blood samples ([…]) were collected and compound 7 concentration levels determined by LC-MS.

[3] = system: JAK2 and STAT5 phosphorylation; assay: In vivo pharmacodynamics, phosphoflow of JAK-STAT signaling in engrafted leukemic cells; design: species or system mouse; conditions: 10, 30 and 100 mg/kg i.p., 2 daily doses
Procedure: For pharmacodynamic studies, after engraftment, mice with >50% hCD45 cells in peripheral blood were dosed with 10, 30 or 100 mg/kg i.p. of compound 7 for 2 daily doses. One hour after the second dose, mice were euthanized, and cells collected from bone marrow and spleen. For phosphoflow cytometry analysis, 0.75×10^6 bone marrow cells in 3 ml of medium were fixed by adding 1 ml of 10% formaldehyde and incubated at room temperature for 10 minutes. The cells then were spun down at 450 g for 5 minutes and resuspended in cold 95% methanol and stored at −20° C. For immunoblotting, splenic leukemia cells were purified by hCD19 MicroBeads (Miltenyi). Cells were pelleted and total protein extracted using RIPA buffer supplemented with Halt™ Protease Inhibitor Cocktail (ThermoFisher).
Cells (7.5×105) were treated with compounds in 3 ml of IMDM containing 1% BSA for one hour followed by treatment with or without 25 ng/mL TSLP (R&D systems) for 30 minutes. Cells were fixed for 10 minutes at room temperature by adding 1 ml of 10% UltraPure Formaldehyde (Polysciences), centrifuged for 5 minutes at 450 g, resuspended in 95% methanol (Electron Microscopy Sciences) and store at −20° C. […] Cells were analyzed on BD Biosciences LSR/Fortessa (BD Biosciences, Franklin Lakes, NJ) with BD FACSDiva 7.0 software followed by FlowJo v10 (Tree Star, Inc., Ashland, OR).

[4] = system: JAK family kinases and GSPT1; assay: In vivo pharmacodynamics, immunoblotting for Janus kinases and GSPT1 in engrafted leukemic cells; design: species or system mouse; conditions: 10, 30 and 100 mg/kg i.p., 2 daily doses
Procedure: Cells were washed twice with ice-cold PBS and lysed in RIPA lysis buffer (Sigma) freshly supplemented with Halt™ Protease Inhibitor Cocktail (ThermoFisher) for 15 minutes on ice. The cell pellet was removed by centrifugation at 13,000 g at 4° C. for 15 minutes. Protein concentration was measured by BCA assay (Thermo Fisher Scientific). Proteins were denatured in NuPAGE LDS 4× sample buffer supplemented with reducing agents (Invitrogen). Typically, 10-20 μg of total protein was loaded per lane on a 4%-12% NuPAGE Bis-Tris gradient gel (Invitrogen) and analyzed by standard immunoblotting and imaged using Li-COR Odyssey CLx (LI-COR Biotechnology, Lincoln, NE). Primary antibodies used were: JAK1 (Cell Signaling #3332S), JAK2 (#3230S), JAK3 (#8827S), TYK2 (#9312S), GSPT1 (#14980S), CRBN (#71810S), IKZF1 (Santa Cruz Biotechnology, SC-398265) and ACBT (Santa Cruz Biotechnology, SC-47778).
For pharmacodynamic studies, after engraftment, mice with >50% hCD45 cells in peripheral blood were dosed with 10, 30 or 100 mg/kg i.p. of compound 7 for 2 daily doses. One hour after the second dose, mice were euthanized, and cells collected from bone marrow and spleen. For phosphoflow cytometry analysis, 0.75×10^6 bone marrow cells in 3 ml of medium were fixed by adding 1 ml of 10% formaldehyde and incubated at room temperature for 10 minutes. […]

[5] = NSG mice, single dose i.p. 30 mg/kg, per mouse, 30 mg/kg
[6] = NSG mice, single dose i.p. 100 mg/kg, per mouse, 100 mg/kg
[7] = female, NSG, mouse, plasma, ip, 30 mg/kg, NSG mice, single dose i.p. 30 mg/kg, per mouse

Compound: CCCn1cc(-c2nc(Nc3ccc(C(=O)NCCCCNc4cccc5c4C(=O)N(C4CCC(=O)NC4=O)C5=O)cc3)nc3[nH]ccc23)cn1 (stereo not shown) [Compound 7]
- Cac2 Papp A/B (Caco-2 cells): 19.12 nm/S
- spleen size and tumor burden in PDX model (CRLF2r B-ALL xenograft): reduced spleen size and tumor burden
- leukemia burden / leukemic cell proliferation in CRLF2r B-ALL xenograft (CRLF2r B-ALL xenograft; ruxolitinib 50 mg/kg oral gavage twice daily, 28-day dosing period): marked reduction in leukemia burden; also recorded: slowed leukemia growth
- tolerability: weight and blood counts [1]: well tolerated with no weight loss or perturbation in blood counts
- plasma concentration after 24 hours ([2]; 30 and 100 mg/kg, intraperitoneal dosing): well above the compounds cellular EC50 value
- Tlast ([2]; NSG mice, single dose i.p. 30 mg/kg, per mouse): 24 h
- AUClast [2, 5]: 1759.1 ng·h/mL and 2248.2 ng·h/mL
- Clast [2, 5]: 53 ng/mL and 74.3 ng/mL
- Cmax [2, 5]: 125.8 ng/mL and 155.3 ng/mL
- Tlast ([2]; NSG mice, single dose i.p. 100 mg/kg, per mouse): 24 h
- AUClast [2, 6]: 1884.7 ng·h/mL and 2179.3 ng·h/mL and 4459 ng·h/mL
- Clast [2, 6]: 79.1 ng/mL and 152 ng/mL
- Cmax [2, 6]: 181.3 ng/mL and 233.2 ng/mL and 410.5 ng/mL
- AUC(0-t) [2, 7]: 1350 ng·h/mL
- concentration at 24 h [2, 7]: 45.5 ng/mL
- Cmax ([2]; female, NSG, mouse, plasma, ip, 30 mg/kg, NSG mice, single dose i.p. 30 mg/kg, per mouse, read-out: Cmax): 115 ng/mL
- concentration at 24 h ([2]; female, NSG, mouse, plasma, ip, 100 mg/kg, NSG mice, single dose i.p. 100 mg/kg, per mouse): 98.1 ng/mL
- inhibition of JAK2 and STAT5 phosphorylation in vivo [3]: dose dependent inhibition
- JAK/GSPT1 degradation in vivo [4]: near maximal at the 30 mg/kg dose
